From patent US4347319A, “Microbiological epoxidation process” (priority 1980, dated 1982)

How the values were obtained:
Type in all cases: cell-based
[1] = test system: Methylocystis parvus (CRL 18 PM4) NRRL B-11,204; test: Oxidation by washed cell suspensions of methane-grown cells; details: methane-grown washed cells, 30° C.; methane to methanol, alkene to 1,2-epoxide
Procedure: (§1) The pH of the nutrient medium was adjusted to 7.0 by the addition of acid or base and 50 ml samples of the nutrient medium were charged into a plurality of 300 ml shaker flasks. The shaker flasks were inoculated with an inoculating loop of cells from an agar plate containing homogeneous colonies of the microorganisms on the plate (the purity of the isolates was confirmed by microscopic examination. The isolates had been maintained on agar plates under an atmosphere of methane and air having a 1:1 v/v gas ratio which had been transferred evey two weeks. The gaseous phase of the inoculated flasks was then replaced with a gas mixture comprised of methane and air having a ratio of 1:1 on a v/v basis. The inoculated flasks were sealed air tight and were incubated on a rotary shaker of orbital radius 2.5 cm at 250 rpm and at 30° C. for two days until turbidity in the medium had developed.
(§2) The cells were harvested by centrifugation at 10,000×g. at 4° C. for 30 minutes. The cell pellet was washed twice with a 0.15 M phosphate buffer at a pH of 7.0 (containing 0.002 M MgCl2). The washed cells were then suspended in a 0.15 M phosphate buffer at pH 7.0.
(§3) A 0.5 ml sample of each washed cell suspension (2 mg cells) was put into 10 ml vials at 4° C. which were sealed with a rubber cap. The gaseous phase of the vials was removed with vacuum and then was replaced with a gas mixture of the oxidative substrate (e.g., methane) and oxygen at a 1:1 v/v ratio. The vials were then incubated at 30 ° C. on a rotary shaker at 300 rpm. Samples of product (3 μl) were withdrawn periodically with a microsyringe and the products were analyzed by gas chromatography (ionization flame detector column).
(§4) The newly discovered and isolated microorganism strains of the present invention were each grown aerobically in the presence of methane in the manner described above. The methane-grown microbial cells were then washed, recovered and put to use in oxidizing an oxidative substrate by the procedure described above except in the case of a liquid substrate 10 μl of the substrate were used.

[2] = test system: Methylococcus minimus (CRL 24 PM12) NRRL B-11,220; test: as above; details: methane-grown washed cells, 30° C.; methane to methanol, alkene to 1,2-epoxide
Procedure: as §1, §2, §3, §4

[3] = test system: Methylomonas methanica (CRL M4P) NRRL B-11,205; test: as above; details: methane-grown washed cells, 30° C.; methane to methanol, alkene to 1,2-epoxide
Procedure: as §1, §2, §3, §4

[4] = test system: Methylococcus capsulatus (CRL M1) NRRL B-11,219; test: as above; details: methane-grown washed cells, 30° C.; methane to methanol, alkene to 1,2-epoxide
Procedure: as §1, §2, §3, §4

[5] = test system: Methylomonas methanica (CRL 21 PM7) NRRL B-11,206; test: as above; details: methane-grown washed cells, 30° C.; methane to methanol, alkene to 1,2-epoxide
Procedure: as §1, §2, §3, §4

[6] = test system: Methylosinus sporium (CRL 16 PM2) NRRL B-11,203; test: as above; details: methane-grown washed cells, 30° C.; methane to methanol, alkene to 1,2-epoxide
Procedure: as §1, §2, §3, §4

[7] = test system: Methylomonas rubrum (CRL 20 PM6) NRRL B-11,211; test: as above; details: methane-grown washed cells, 30° C.; methane to methanol, alkene to 1,2-epoxide
Procedure: as §1, §2, §3, §4

[8] = test system: Methylobacter vinelandii (CRL M5Y) NRRL B-11,218; test: as above; details: methane-grown washed cells, 30° C.; methane to methanol, alkene to 1,2-epoxide
Procedure: as §1, §2, §3, §4

[9] = test system: Methylomonas albus (CRL M8Y) NRRL B-11,207; test: as above; details: methane-grown washed cells, 30° C.; methane to methanol, alkene to 1,2-epoxide
Procedure: as §1, §2, §3, §4

[10] = test system: Methylococcus capsulatus (CRL 25 PM13) NRRL B-11,221; test: as above; details: methane-grown washed cells, 30° C.; methane to methanol, alkene to 1,2-epoxide
Procedure: as §1, §2, §3, §4

[11] = test system: Methylobacter bovis (CRL 19 PM5) NRRL B-11,217; test: as above; details: methane-grown washed cells, 30° C.; methane to methanol, alkene to 1,2-epoxide
Procedure: as §1, §2, §3, §4

[12] = test system: Methylomonas agile (CRL 22 PM9) NRRL B-11,209; test: as above; details: methane-grown washed cells, 30° C.; methane to methanol, alkene to 1,2-epoxide
Procedure: as §1, §2, §3, §4

[13] = test system: Methylomonas rubrum (CRL M6P) NRRL B-11,210; test: as above; details: methane-grown washed cells, 30° C.; methane to methanol, alkene to 1,2-epoxide
Procedure: as §1, §2, §3, §4

[14] = test system: Methylosinus trichosporium (CRL 15 PM1) NRRL B-11,202; test: as above; details: methane-grown washed cells, 30° C.; methane to methanol, alkene to 1,2-epoxide
Procedure: as §1, §2, §3, §4

[15] = test system: Methylobacterium organophilum (CRL 26 R6) NRRL B-11,222; test: as above; details: methane-grown washed cells, 30° C.; methane to methanol, alkene to 1,2-epoxide
Procedure: as §1, §2, §3, §4

[16] = test system: Methylobacter chroococcum (CRL 23 PM8) NRRL B-11,215; test: as above; details: methane-grown washed cells, 30° C.; methane to methanol, alkene to 1,2-epoxide
Procedure: as §1, §2, §3, §4

[17] = test system: Methylomonas streptobacterium (CRL 17 PM3) NRRL B-11,208; test: as above; details: methane-grown washed cells, 30° C.; methane to methanol, alkene to 1,2-epoxide
Procedure: as §1, §2, §3, §4

[18] = test system: Methylobacter chroococcum (CRL M6) NRRL B-11,214; test: as above; details: methane-grown washed cells, 30° C.; methane to methanol, alkene to 1,2-epoxide
Procedure: as §1, §2, §3, §4

[19] = test system: Methylomonas rosaceus (CRL M7P) NRRL B-11,213; test: as above; details: 30° C., methane to methanol, alkene to 1,2-epoxide
Procedure: as §1, §2, §3, §4

[20] = test system: Methylomonas rosaceus (CRL M10P) NRRL B-11,212
Procedure: as §1, §2, §3, §4

[21] = test system: Methylobacter bovis (CRL M1Y) NRRL B-11,216; test: Oxidation by washed cell suspensions of methane-grown cells; details: methane-grown washed cells, 30° C.; methane to methanol, alkene to 1,2-epoxide
Procedure: as §1, with “The inoculated flasks were sealed air tight and were incubated on a rotary shaker of orbital radius 2.5 cm at 250 rpm and at 30° C. for two days until turbidity in the medium had developed.” left out
as §2, §3, §4

[22] = test system: methane-grown methylotrophic microorganisms; test: Epoxidation by methane-grown cells of the strains of the invention
Procedure: as §1
The cells were harvested by centrifugation at 10,000×g. at 4° C. for 30 minutes. The cell pellet was washed twice with a 0.15 M phosphate buffer at a pH of 7.0 (containing 0.002 M MgCl2). […]
A 0.5 ml sample of each washed cell suspension (2 mg cells) was put into 10 ml vials at 4° C. which were sealed with a rubber cap. […] Samples of product (3 μl) were withdrawn periodically with a microsyringe and the products were analyzed by gas chromatography (ionization flame detector column). […]

C=C [Ethylene]
Oxidative Conversion Rates [1]: 0.9 μmole/hr/mg protein
Oxidative Conversion Rates [2]: 1.2 μmole/hr/mg protein
Oxidative Conversion Rates [3]: 1.0 μmole/hr/mg protein
Oxidative Conversion Rates [4]: 5.7 μmole/hr/mg protein
Oxidative Conversion Rates [5]: 2.1 μmole/hr/mg protein
Oxidative Conversion Rates [6]: 1.3 μmole/hr/mg protein
Oxidative Conversion Rates [7]: 1.1 μmole/hr/mg protein
Oxidative Conversion Rates [8]: 1.2 μmole/hr/mg protein
Oxidative Conversion Rates [9]: 1.8 μmole/hr/mg protein
Oxidative Conversion Rates [10]: 0.8 μmole/hr/mg protein
Oxidative Conversion Rates [11]: 1.3 μmole/hr/mg protein
Oxidative Conversion Rates [12]: 2.2 μmole/hr/mg protein
Oxidative Conversion Rates [13]: 0.7 μmole/hr/mg protein
Oxidative Conversion Rates [14]: 2.5 μmole/hr/mg protein
Oxidative Conversion Rates [15]: 0.9 μmole/hr/mg protein
Oxidative Conversion Rates [16]: 1.2 μmole/hr/mg protein
Oxidative Conversion Rates [17]: 0.7 μmole/hr/mg protein
Oxidative Conversion Rates [18]: 1.6 μmole/hr/mg protein
Oxidative Conversion Rates [19]: 2.9 μmole/hr/mg protein
Oxidative Conversion Rates [20]: 4.7
Oxidative Conversion Rates [21]: 0.64 μmole/hr/mg protein

C=CCCCC [hexene-1]
epoxide product formation [22]: did not produce any detectable epoxide product
